Experimental data reported in patent US9023852B2, “1, 2, 4-thiadiazol-5-ylpiperazine derivatives useful in the treatment of neurodegenerative diseases” (Remynd NV, priority 2011, dated 2015).

Test system: M17—3TAU(P301L) cells
Assay: Neuroblastoma tauopathy model: inhibition of TAU-induced cytotoxicity (LDH)
Type: cell-based
Conditions: Homo sapiens, 168 h; inhibition of TAU-induced toxicity (LDH), 7 days differentiation with retinoic acid
Source text: A TAU expression plasmid was constructed by sub-cloning the cDNA encoding for human TAU-P301L protein, wherein proline at position 301 is substituted by a leucine residue, into mammalian expression vector pcDNA3.1 resulting in the plasmid pcDNA3.1-TAUP301L. Plasmids pcDNA3.1 and pcDNA3.1-TAU P301L were transfected into human neuroblastoma cells (BE-M17; ATCC No. CRL-2267™) using lipofectamine reagent and subsequently, independent clonal cell lines with the plasmids stably integrated into the genome were selected by antibiotic resistance selection (Geneticin (G418)), resulting in cell lines M17.pcDNA3 and M17—3TAUP301L. Expression of the TAUP301L gene in the M17—3TAUP301L cells was confirmed by Western blot analysis.
Differentiation of the cells with RA leads to phosphorylation and subsequent aggregation of TAU, inducing a tauopathy in these cells. Cytotoxicity of cells was measured by quantification of lactate dehydrogenase (LDH) levels. In dead cells LDH is leaked out of the cells into the medium due to a loss of plasma-membrane integrity.
Briefly, 3 days preceding the experiment pre-cultures of M17.pcDNA3 and M17—3TAU(P301L) cells were prepared, starting from a stock culture, at a density of 50.000-100.000 cells/cm2 in detection medium (Optimem Reduced Serum without phenol red (Gibco, Cat. 31985-047) supplemented with 1% fetal calf serum (FCS), 1 mM sodium pyruvate, 1× non-essential amino acids (NEAA), 500 μg/ml G418 and 0.5× antibiotic/antimycotic (ABAM)). At the day of the experiment these precultures were diluted to ˜0, 1.106 cells/ml in detection medium without FCS and 60 μL of this suspension is dispensed per well into a 96-well microtiter plate. After 3 hours of incubation at 37° C./5% CO2 an equal volume of detection medium containing 2.5 μM RA was added and subsequently incubated for 7 days at 37° C./5% CO2. After 7 days, LDH activity was determined using the Promega Cytotox 96 Non-Radioactive cytotoxicity assay (Cat. G1780), according the manufacturer's instructions. Cytotoxicity is measured as the ratio of LDH increase in the supernatant divided by the LDH increase in the total cell suspension (sum of the LDH measured in cells and supernatant).
The M17—3TAU(P301L) cell line makes it possible to assess the ability of novel compounds to inhibit TAU-induced cytotoxicity. […] Compounds were tested for their ability to hamper TAU-induced toxicity at different concentrations, ranging from low non-effective concentrations to high potent concentrations. Afterwards, the dose-dependent inhibition curve was used to calculate their EC50 (Table 1).

Compound | EC50 [nM]
CCOc1ccc(CCN2CCN(c3nc(-c4ccc(Cl)cc4)ns3)CC2)cc1 [Example 50, 1-[3-(4-Chloro-phenyl)-[1,2,4]thiadiazol-5-yl]-4-[2-(4-ethoxy-phenyl)-ethyl]-piperazine] | 169
COc1ccc(CCN2CCN(c3nc(-c4ccc(Cl)cc4)ns3)CC2)cc1F [Example 80, 1-[3-(4-Chloro-phenyl)-[1,2,4]thiadiazol-5-yl]-4-[2-(3-fluoro-4-methoxy-phenyl)-ethyl]-piperazine] | 2.7
COc1ccc(CCN2CCN(c3nc(-c4ccc(C(F)(F)F)nc4)ns3)CC2)cc1 [Example 42, 1-[2-(4-Methoxy-phenyl)-ethyl]-4-[3-(6-trifluoromethyl-pyridin-3-yl)-[1,2,4]thiadiazol-5-yl]-piperazine] | 0.3
COc1ccc(CC(C)N2CCN(c3nc(-c4ccc(Cl)cc4)ns3)CC2)cc1 (stereo not shown) [Example 73, 1-[3-(4-Chloro-phenyl)-[1,2,4]thiadiazol-5-yl]-4-[2-(4-methoxy-phenyl)-1-methyl-ethyl]-piperazine] | 0.9
COc1ccc(CCN2CCN(c3nc(-c4cccc(F)c4)ns3)CC2)cc1 [Example 84, 1-[3-(3-Fluoro-phenyl)-[1,2,4]thiadiazol-5-yl]-4-[2-(4-methoxy-phenyl)-ethyl]-piperazine] | 0.7
Cc1ccc(-c2nsc(N3CCN(Cc4ccccc4C)CC3)n2)cc1 [Example 6, 1-(2-Methyl-benzyl)-4-(3-p-tolyl-[1,2,4]thiadiazol-5-yl)-piperazine] | 278
Fc1ccc(-c2nsc(N3CCN(CCC4CCCCC4)CC3)n2)cc1F [Example 153, 1-(2-Cyclohexyl-ethyl)-4-[3-(3,4-difluoro-phenyl)-[1,2,4]thiadiazol-5-yl]-piperazine] | 5.9
Cc1ccccc1CN1CCN(c2nc(-c3cncc(Cl)c3)ns2)CC1 [Example 151, 1-[3-(5-Chloro-pyridin-3-yl)-[1,2,4]thiadiazol-5-yl]-4-(2-methyl-benzyl)-piperazine] | 8.2
Clc1cncc(-c2nsc(N3CCN(CCC4CCOCC4)CC3)n2)c1 [Example 166, 3-(5-chloropyridin-3-yl)-5-(4-(2-(tetrahydro-2H-pyran-4-yl)ethyl)piperazin-1-yl)-1,2,4-thiadiazole] | 0.7
Clc1ccc(-c2nsc(N3CCN(CCc4ccccc4)CC3)n2)nc1 [Example 121, 1-[3-(5-Chloro-pyridin-2-yl)-[1,2,4]thiadiazol-5-yl]-4-phenethyl-piperazine] | 34.6
N#Cc1cccc(-c2nsc(N3CCN(CCc4ccc(Cl)cc4)CC3)n2)c1 [Example 113, 3-(5-{4-[2-(4-Chloro-phenyl)-ethyl]piperazin-1-yl}-[1,2,4]thiadiazol-3-yl)-benzonitrile] | 17.1
Clc1ccc(CCN2CCN(c3nc(-c4ccnc(Cl)c4)ns3)CC2)cc1 [Example 169, 5-(4-(4-chlorophenethyl)piperazin-1-yl)-3-(2-chloropyridin-4-yl)-1,2,4-thiadiazole] | 10.4
COc1cc(CCN2CCN(c3nc(-c4cc(Cl)ccn4)ns3)CC2)ccn1 [Example 127, 1-[3-(4-Chloro-pyridin-2-yl)-[1,2,4]thiadiazol-5-yl]-4-[2-(2-methoxy-pyridin-4-yl)-ethyl]-piperazine] | 109
Fc1ccc(-c2nsc(N3CCN(CCc4ccc(C(F)(F)F)cc4)CC3)n2)cc1F [Example 146, 1-[3-(3,4-Difluoro-phenyl)-[1,2,4]thiadiazol-5-yl]-4-[2-(4-trifluoromethyl-phenyl)-ethyl]-piperazine] | 60.1
COc1ccc(CCCN2CCN(c3nc(-c4ccc(Cl)cc4)ns3)CC2)cc1 [Example 52, 1-[3-(4-Chloro-phenyl)-[1,2,4]thiadiazol-5-yl]-4-[3-(4-methoxy-phenyl)-propyl]-piperazine] | 327
Cc1ncc(-c2nsc(N3CCN(CCc4ccccc4)CC3)n2)cn1 [Example 178, 3-(2-methylpyrimidin-5-yl)-5-(4-phenethylpiperazin-1-yl)-1,2,4-thiadiazole] | 13.2
COc1ccc(CCN2CCN(c3nc(-c4ccc(F)c(F)c4)ns3)CC2)cc1 [Example 102, 1-[3-(3,4-Difluoro-phenyl)-[1,2,4]thiadiazol-5-yl]-4-[2-(4-methoxy-phenyl)-ethyl]-piperazine] | 0.9

Compound | EC50 [nM]
Fc1ccc(-c2nsc(N3CCN(CCC4CCOCC4)CC3)n2)cc1F [Example 164, 3-(3,4-difluorophenyl)-5-(4-(2-(tetrahydro-2H-pyran-4-yl)ethyl)piperazin-1-yl)-1,2,4-thiadiazole] | 3.4
COc1cccc(CCN2CCN(c3nc(-c4ccc(F)cc4OC)ns3)CC2)c1 [Example 66, 1-[3-(4-Fluoro-2-methoxy-phenyl)-[1,2,4]thiadiazol-5-yl]-4-[2-(3-methoxy-phenyl)-ethyl]-piperazine] | 1.5
N#Cc1ccc(-c2nsc(N3CCN(CCc4ccc(C(F)(F)F)cc4)CC3)n2)cc1 [Example 147, 4-(5-{4-[2-(4-Trifluoromethyl-phenyl)-ethyl]-piperazin-1-yl}-[1,2,4]thiadiazol-3-yl)-benzonitrile] | 176
COc1ccc(C(=O)CN2CCN(c3nc(-c4ccc(Cl)cc4)ns3)CC2)cc1 [Example 53, 2-{4-[3-(4-Chloro-phenyl)-[1,2,4]thiadiazol-5-yl]-piperazin-1-yl}-1-(4-methoxy-phenyl)-ethanone] | 12.6
Cc1cccc(CCN2CCN(c3nc(-c4ccc(Cl)cc4)ns3)CC2)c1 [Example 23, 1-[3-(4-Chloro-phenyl)-[1,2,4]thiadiazol-5-yl]-4-(2-m-tolyl-ethyl)-piperazine] | 1.9
FC(F)(F)c1cccc(CCN2CCN(c3nc(-c4cncc(Cl)c4)ns3)CC2)c1 [Example 149, 1-[3-(5-Chloro-pyridin-3-yl)-[1,2,4]thiadiazol-5-yl]-4-[2-(3-trifluoromethyl-phenyl)-ethyl]-piperazine] | 3
N#Cc1cccc(-c2nsc(N3CCN(CCc4ccccc4)CC3)n2)c1 [Example 109, 3-[5-(4-Phenethyl-piperazin-1-yl)-[1,2,4]thiadiazol-3-yl]-benzonitrile] | 3
COc1ccc(CCN2CCN(c3nc(-c4ccc(Cl)cc4)ns3)CC2)cc1 [Example 17, 1-[3-(4-Chloro-phenyl)-[1,2,4]thiadiazol-5-yl]-4-[2-(4-methoxy-phenyl)-ethyl]-piperazine] | 0.8
Clc1cc(-c2nsc(N3CCN(CCc4ccccc4)CC3)n2)ccn1 [Example 170, 3-(2-chloropyridin-4-yl)-5-(4-phenethylpiperazin-1-yl)-1,2,4-thiadiazole] | 0.7
COc1cccc(-c2nsc(N3CCN(Cc4ccccc4C)CC3)n2)c1 [Example 13, 1-[3-(3-Methoxy-phenyl)-[1,2,4]thiadiazol-5-yl]-4-(2-methyl-benzyl)-piperazine] | 215
Fc1ccc(CCN2CCN(c3nc(-c4cncc(Cl)c4)ns3)CC2)cc1 [Example 131, 1-[3-(5-Chloro-pyridin-3-yl)-[1,2,4]thiadiazol-5-yl]-4-[2-(4-fluoro-phenyl)-ethyl]-piperazine] | 1.3
OC(CN1CCN(c2nc(-c3ccc(Cl)cc3)ns2)CC1)c1cccc(F)c1 (stereo not shown) [Example 63, 2-{4-[3-(4-Chloro-phenyl)-[1,2,4]thiadiazol-5-yl]-piperazin-1-yl}-1-(3-fluoro-phenyl)-ethanol] | 7.4
Clc1ccc(CCN2CCN(c3nc(-c4cncc(Cl)c4)ns3)CC2)cc1 [Example 132, 1-[2-(4-Chloro-phenyl)-ethyl]-4-[3-(5-chloro-pyridin-3-yl)-[1,2,4]thiadiazol-5-yl]-piperazine] | 3.3
Clc1cncc(-c2nsc(N3CCN(CCc4ccccc4)CC3)n2)c1 [Example 130, 1-[3-(5-Chloro-pyridin-3-yl)-[1,2,4]thiadiazol-5-yl]-4-phenethyl-piperazine] | 0.9
Fc1ccc(-c2nsc(N3CCN(CCc4cccc(C(F)(F)F)c4)CC3)n2)cc1F [Example 158, 3-(3,4-difluorophenyl)-5-(4-(3-(trifluoromethyl)phenethyl)piperazin-1-yl)-1,2,4-thiadiazole] | 998
COc1cc(CCN2CCN(c3nc(-c4ccc(Cl)cc4)ns3)CC2)ccn1 [Example 75, 1-[3-(4-Chloro-phenyl)-[1,2,4]thiadiazol-5-yl]-4-[2-(2-methoxy-pyridin-4-yl)-ethyl]-piperazine] | 13.4
Cc1ccccc1CN1CCN(c2nc(-c3ccc(Cl)cc3)ns2)CC1 [Example 12, 1-[3-(4-Chloro-phenyl)-[1,2,4]thiadiazol-5-yl]-4-(2-methyl-benzyl)-piperazine] | 268
